In US20220233566A1, “NOVEL CARBONATE COMPOUND HAVING PYRROLOPYRIMIDINE SKELETON OR PHARMACEUTICALLY ACCEPTABLE SALT THEREOF” (TAIHO PHARMACEUTICAL CO., LTD., priority 2019, published 2022):

Assays:
Assay in all cases: Growth suppression activity in human tumor cell line
Type in all cases: cell-based
BHL-89 = details: 72 h; Human hematopoietic organ tumor, BHL-89, 3 days
Procedure, shortened: (§1)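 Steps: seed cells in wells; culture one day; add compound serial dilutions; culture 3 more days; measure CellTiter-Glo luminescence; calculate viability from treated versus untreated wells; derive IC50 (μM).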

CCRFCEM = details: CCRF-CEM, 72 h, Human hematopoietic organ tumor, 3 days
Procedure, shortened: as §1

MKN45 = details: MKN-45, 72 h; Human stomach cancer, MKN45, 3 days
Procedure, shortened: as §1

Mero48a = details: 72 h, Human lung cancer, 3 days
Procedure, shortened: as §1

Mero83 = details: 72 h; Human lung cancer, Mero83, 3 days
Procedure, shortened: as §1

IC50 (BHL-89): 230 nM | IC50 (CCRFCEM): 50 nM | IC50 (MKN45): 210 nM | IC50 (Mero48a): 160 nM | IC50 (Mero83): 350 nM
Structure (SMILES): Nc1ncnc2c1c(Br)cn2[C@@H]1O[C@H](CO)[C@@H](O)[C@@H]1F [Comparative Example 1, (2R,3R,4S,5R)-5-(4-amino-5-bromo-7H-pyrrolo[2,3-d]pyrimidin-7-yl)-4-fluoro-2-(hydroxymethyl) tetrahydrofuran-3-ol]
